Measurements reported in patent US7129269B2, “Compound” (Sterix Ltd., priority 1996, dated 2006).
Several values for one entry are separate records, joined by “and”; a condition that tells them apart may be missing. Equal values may be shown once.

Assays:
[1] = target: T1, oestrone sulphatase (E1-STS) (Homo sapiens, UniProt P08842); assay: Oestrone sulphatase (E1-STS) inhibition in intact MCF-7 breast cancer cells; format: cell-based
T1 construct: endogenous in cells; host or cells: MCF-7 breast cancer cells
T1 sequence (P08842 22-583): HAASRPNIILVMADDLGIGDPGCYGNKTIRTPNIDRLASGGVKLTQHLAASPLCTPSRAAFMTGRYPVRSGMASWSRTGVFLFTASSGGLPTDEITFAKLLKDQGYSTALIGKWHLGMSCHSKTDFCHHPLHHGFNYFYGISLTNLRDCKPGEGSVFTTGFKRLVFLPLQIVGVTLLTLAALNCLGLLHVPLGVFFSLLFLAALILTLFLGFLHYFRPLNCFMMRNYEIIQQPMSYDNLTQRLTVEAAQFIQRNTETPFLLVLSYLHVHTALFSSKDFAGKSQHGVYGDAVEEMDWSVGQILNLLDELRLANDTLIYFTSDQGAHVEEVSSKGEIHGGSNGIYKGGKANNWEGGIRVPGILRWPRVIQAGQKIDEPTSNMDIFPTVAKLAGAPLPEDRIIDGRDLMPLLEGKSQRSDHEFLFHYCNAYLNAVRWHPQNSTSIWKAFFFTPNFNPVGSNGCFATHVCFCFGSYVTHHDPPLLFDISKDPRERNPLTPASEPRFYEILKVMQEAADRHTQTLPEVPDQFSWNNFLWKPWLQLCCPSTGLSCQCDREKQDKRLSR

[2] = target: T2, oestrone sulphatase (Rattus norvegicus, UniProt P15589); assay: In vivo inhibition of oestrone sulphatase activity in rat liver; settings: 24 hours after single oral dose in propylene glycol; for % Inhibition of oestrone sulphatase in vivo: 10 mg/Kg
T2 construct: from tissue; host or cells: rat liver
T2 sequence (P15589 20-577): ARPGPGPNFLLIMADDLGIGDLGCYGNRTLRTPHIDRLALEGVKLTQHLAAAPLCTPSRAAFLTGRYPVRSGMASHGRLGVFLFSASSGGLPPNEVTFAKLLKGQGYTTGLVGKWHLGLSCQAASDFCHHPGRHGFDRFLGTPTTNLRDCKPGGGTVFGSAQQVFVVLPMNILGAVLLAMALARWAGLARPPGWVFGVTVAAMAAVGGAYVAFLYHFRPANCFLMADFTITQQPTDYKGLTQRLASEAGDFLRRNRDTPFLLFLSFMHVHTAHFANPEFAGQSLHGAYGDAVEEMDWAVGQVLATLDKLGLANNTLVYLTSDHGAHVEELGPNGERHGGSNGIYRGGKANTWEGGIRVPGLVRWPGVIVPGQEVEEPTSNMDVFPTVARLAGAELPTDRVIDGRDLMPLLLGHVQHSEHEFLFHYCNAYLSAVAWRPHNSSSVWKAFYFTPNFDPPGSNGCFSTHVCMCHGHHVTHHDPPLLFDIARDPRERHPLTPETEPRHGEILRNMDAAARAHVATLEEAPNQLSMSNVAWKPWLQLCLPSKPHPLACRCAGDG
Experimental: FIG. 11 presents in vivo inhibition of oestrone sulphatase activity in rat liver for two isoflavones according to the present invention. […] Compounds were administered as a single 10 mg/Kg dose. Oestrone sulphatase activity was assayed in tissue samples obtained 24 h after drug administration.

[3] = target: T3, aromatase (Homo sapiens, UniProt P11511); assay: Aromatase inhibition in placental microsomes, tritiated water release assay
T3 sequence (P11511 1-503): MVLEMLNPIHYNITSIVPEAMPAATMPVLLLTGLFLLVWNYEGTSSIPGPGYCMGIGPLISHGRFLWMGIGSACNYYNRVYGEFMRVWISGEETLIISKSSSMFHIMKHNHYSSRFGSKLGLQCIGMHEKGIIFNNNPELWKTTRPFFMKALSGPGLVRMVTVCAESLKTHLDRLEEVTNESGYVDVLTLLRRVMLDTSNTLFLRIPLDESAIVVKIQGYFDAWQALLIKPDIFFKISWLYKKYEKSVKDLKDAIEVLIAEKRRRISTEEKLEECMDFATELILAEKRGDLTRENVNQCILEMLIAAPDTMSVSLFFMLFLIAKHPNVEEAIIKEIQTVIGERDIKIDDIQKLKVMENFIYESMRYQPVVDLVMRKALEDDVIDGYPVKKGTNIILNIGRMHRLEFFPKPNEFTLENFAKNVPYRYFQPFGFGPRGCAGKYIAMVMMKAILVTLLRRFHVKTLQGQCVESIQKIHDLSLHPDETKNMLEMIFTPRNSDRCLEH

[4] = target: T4, oestrone sulphatase (Homo sapiens, UniProt P08842); assay: Oestrone sulphatase inhibition in placental microsomes; format: biochemical; settings: compared with 19
T4 construct: from tissue; host or cells: placenta (microsomes, 100,000 g)
T4 sequence (P08842 22-583): T1 sequence (P08842 22-583)

Compound	% Inhibition of sulphatase activity in MCF-7 cells ([1]; 1 μM)	% Inhibition of sulphatase activity in MCF-7 cells ([1]; 10 μM)	% Inhibition of oestrone sulphatase in vivo [2]	% Inhibition of sulphatase activity in MCF-7 cells ([1]; 0.1 μM)	% Inhibition of aromatase activity in placental microsomes at 10 μM [3]	inhibition of E1-STS activity in placental microsomes (in words) [4]	inhibition of E1-STS activity in MCF-7 cells (in words) [1]	inhibition at 1 mg/kg ([2]; 1 mg/Kg)
NS(=O)(=O)Oc1ccc2oc(-c3ccccc3)cc(=O)c2c1 [Compound 2, Flavone-6-O-sulphamate]	99.1 ± 0.6%	98.9 ± 1.3%						
NS(=O)(=O)Oc1ccc(-c2coc3cc(O)cc(O)c3c2=O)cc1 [Compound 18, 5,7-Dihydroxy isoflavone-4′-O-sulphamate]	83 ± 2.7%	99 ± 0.7%	62.0 ± 4.7%	23 ± 2.2%	* (*Inactive)			
COc1cc(-c2oc3cc(O)cc(O)c3c(=O)c2OS(N)(=O)=O)cc(OC)c1OC [Compound 13, 5,7-Dihydroxy-3′,4′,5′-Trimethoxy flavone-3-O-sulphamate]	* (*Inactive)	* (*Inactive)		* (*Inactive)				
NS(=O)(=O)Oc1ccc(C2COc3cc(OS(N)(=O)=O)ccc3C2)cc1 (racemic) [Compound 22, (±) Isoflavane-7,4′-O,O-bisulphamate]	>99%	>99%		>99%	13%	less potent	less potent	
NS(=O)(=O)Oc1ccc(-c2cc(=O)c3ccccc3o2)cc1OS(N)(=O)=O [Compound 8, Flavone-3′,4′-O,O-bisulphamate]	13 ± 8.0%	29 ± 1.3%		* (*Inactive)				
COc1ccc(C2CC(=O)c3c(O)cc(OS(N)(=O)=O)cc3O2)cc1OS(N)(=O)=O (stereo not drawn) [Compound 21, 5-Hydroxy 4′-methoxy flavanone-3′,7-O,O-bisulphamate]	8 ± 0.6%	9 ± 1.2%		2 ± 1.3%				
NS(=O)(=O)Oc1ccc(-c2cc(=O)c3c(O)cc(OS(N)(=O)=O)cc3o2)cc1 [Compound 9, 5-Hydroxy flavone-4′,7-O,O-bisulphamate]	79 ± 0.8%	98 ± 0.4%		8 ± 2.6%				
COc1ccc(-c2cc(=O)c3c(O)c(OC)c(OC)cc3o2)cc1OS(N)(=O)=O [Compound 6, 5-Hydroxy 4′,6,7-Trimethoxy flavone-3′-O-sulphamate]	18 ± 6.1%	27 ± 3.5%		* (*Inactive)				
COc1cc(O)c2c(=O)cc(-c3ccc(OS(N)(=O)=O)cc3)oc2c1 [Compound 5, 5-Hydroxy-7-methoxy-flavone-4′-O-sulphamate]	88 ± 3.1%	99 ± 0.6%		35 ± 4.0%				
COc1ccc(-c2oc3cc(OS(N)(=O)=O)cc(O)c3c(=O)c2OS(N)(=O)=O)cc1 [Compound 11, 5-Hydroxy-4′-methoxy flavone-3,7-O,O-bisulphamate]	* (*Inactive)	* (*Inactive)		* (*Inactive)				
NS(=O)(=O)Oc1ccc2c(=O)cc(-c3ccccc3)oc2c1 [Compound 1, Flavone-7-O-sulphamate]	1.8 ± 1.0%	4.9 ± 0.3%		0.30 ± 0.2%				
NS(=O)(=O)Oc1cc(O)c2c(=O)c(OS(N)(=O)=O)c(-c3ccccc3)oc2c1 [Compound 10, 5-Hydroxy flavone-3,7-O,O-bisulphamate]	8 ± 6.4%	12 ± 7.5%		* (*Inactive)				
NS(=O)(=O)Oc1ccc(-c2coc3cc(OS(N)(=O)=O)ccc3c2=O)cc1 [Compound 19, Isoflavone-4′,7-O,O-bisulphamate]			71.4 ± 2.9%		* (*Inactive)			
COc1cc(-c2oc3cc(OS(N)(=O)=O)ccc3c(=O)c2OS(N)(=O)=O)cc(OC)c1OC [Compound 14, 3′,4′,5′-Trimethoxy flavone-3,7-O,O-bisulphamate]	* (*Inactive)	* (*Inactive)		* (*Inactive)				
NS(=O)(=O)Oc1ccc(-c2coc3cc(OS(N)(=O)=O)cc(O)c3c2=O)cc1 [Compound 17, 5-Hydroxy isoflavone-4′,7-O,O-bisulphamate]	79–99%		81.4 ± 3.2%	22–87% and 28 ± 1.7%	* (*Inactive)			
COc1cc2oc(-c3ccccc3)cc(=O)c2c(O)c1OS(N)(=O)=O [Compound 4, 5-Hydroxy-7-methoxy flavone-6-O-sulphamate]	51 ± 3.0%	78 ± 1.7%		11 ± 2.7%				
COc1cc(-c2oc3cc(OS(N)(=O)=O)cc(O)c3c(=O)c2OS(N)(=O)=O)cc(OC)c1OC [Compound 12, 5-Hydroxy-3′,4′,5′-Trimethoxy flavone-3,7-O,O-bisulphamate]	* (*Inactive)	* (*Inactive)		* (*Inactive)				
COc1cc(-c2oc3cc(O)ccc3c(=O)c2OS(N)(=O)=O)cc(OC)c1OC [Compound 15, 7-Hydroxy 3′,4′,5′-Trimethoxy flavone-3-O-sulphamate]	* (*Inactive)	* (*Inactive)		* (*Inactive)				
COc1ccc(-c2coc3cc(OS(N)(=O)=O)cc(O)c3c2=O)cc1 [Compound 16, 5-Hydroxy-4′-methoxyisoflavone 7-O-sulphamate]	11 ± 3.0%	37 ± 1.7%		* (*Inactive)	* (*Inactive)			
COc1ccc(-c2cc(=O)c3c(OC)c(OC)c(OC)cc3o2)cc1OS(N)(=O)=O [Compound 7, 4′,5,6,7-Tetramethoxy flavone-3′-O-sulphamate]	23 ± 1.8%	12 ± 0.5%		29 ± 0.8%				
C[C@]12CC[C@@H]3c4ccc(OS(N)(=O)=O)cc4CC[C@H]3[C@@H]1CCC2=O [EMATE, oestrone-3-sulphamate, reference compound]								> 99%
